Source: article PMC11784026, “Phase 1 study of the safety, tolerability, and pharmacokinetics of a synthetic macrocyclic peptide antibiotic (BRII-693) in healthy adult participants” (Antimicrobial Agents and Chemotherapy, 2024)
Where two headings read alike, the source gives them in different places. Where a SMILES comes first, the peptide text is derived from it. Bridges are numbered along the chain shown (N, C = ends). [ ]: non-standard residue; d: D form. The star is where a group is joined. X1 = O=C(c1ccc(Cl)cc1Cl)*; Dab = NCC[C@H](N)C(=O)O; Abu = CC[C@H](N)C(=O)O; Dap = NC[C@H](N)C(=O)O

How the values were obtained:
[1] = Plasma pharmacokinetics after single ascending doses (SAD), phase 1; assay type: in vivo, human (healthy adult participants); settings: for clearance / Vd / half-life / AUC(0-inf) / Cmax / AUC(0-t) / Tmax: human, plasma; for clearance: total clearance; for Vd: volume of distribution during terminal phase, read-out: VZ; for half-life: apparent terminal half-life; for AUC(0-t): read-out: AUC0–6h
Experimental: Participants were then discharged on day 3.
(§1) Plasma and urine PK parameters were summarized for each cohort using descriptive statistics. Analyses using linear models were performed to assess dose proportionality (both single-dose cohorts 1–7 and multiple-dose cohorts 8–10). Dose-linearity of Cmax and AUC across the dose range was assessed by fitting the power model with ln-transformed parameter as response variables and ln-transformed dose (continuous variable) as a fixed effect. For each PK parameter and study phase (SAD or MAD) separately, a pooled estimate (across all dose cohorts) of slope, corresponding 95% confidence interval (CI), and between-subject coefficient of variation (CV) were calculated. Dose proportionality was to be concluded if the 95% CI for the slope spans 1. […] Least square means (LSMs) and difference in LSMs with 90% CI were calculated; these values were then back exponentiated to give the geometric LSM, geometric mean ratio, and 90% CI.

[2] = Plasma pharmacokinetics after multiple ascending doses (MAD), phase 1; assay type: in vivo, human (healthy adult participants)
Experimental: Participants were discharged on day 11.
as §1

[3] = single 1-h IV infusion 10 mg, n = 6, arithmetic mean ± SD
[4] = single 1-h IV infusion 25 mg, n = 5, arithmetic mean ± SD
[5] = single 1-h IV infusion 50 mg, n = 6, arithmetic mean ± SD
[6] = single 1-h IV infusion 100 mg, n = 6, arithmetic mean ± SD
[7] = single 1-h IV infusion 200 mg, n = 6, arithmetic mean ± SD
[8] = single 1-h IV infusion 300 mg, n = 6, arithmetic mean ± SD
[9] = single 1-h IV infusion 400 mg, n = 6, arithmetic mean ± SD

`CC[C@@H]1NC(=O)[C@@H](CC(C)C)NC(=O)[C@H](CCN)NC(=O)[C@@H](NC(=O)[C@H](CN)NC(=O)[C@@H](NC(=O)[C@H](CCN)NC(=O)c2ccc(Cl)cc2Cl)[C@@H](C)O)CCNC(=O)[C@H]([C@@H](C)O)NC(=O)[C@H](CCN)NC(=O)[C@H](CCN)NC1=O` [BRII-693] (X1-[Dab]T[Dap][Dab][Dab][dL][Abu][Dab][Dab]T; lactam 4-C; N-terminus assumed) gave a clearance [1, 3] of 63.8 mL/min, a Vd [1, 3] of 14.1 ± 1.54 L and a clearance [1, 4] of 72.7 mL/min. It also gave a Vd [1, 4] of 20.7 ± 7.61 L, a clearance [1, 5] of 69.5 mL/min and a Vd [1, 5] of 19.2 ± 3.34 L. It also gave a clearance [1, 6] of 62.7 mL/min, a Vd [1, 6] of 21.8 ± 3.17 L and a clearance [1, 7] of 68.5 mL/min. For the same molecule, the Vd [1, 7] was 21.3 ± 3.27 L, the clearance [1, 8] was 72.3 mL/min and the Vd [1, 8] was 25.8 ± 2.73 L. The clearance [1, 9] was 65.5 mL/min, the Vd [1, 9] was 24.6 ± 2.47 L and the half-life [1, 3] was 2.58 ± 0.46 h. It also gave an AUC(0-inf) [1, 3] of 2640 ± 330 ng·h/mL, a Cmax [1, 3] of 770 ± 120 ng/mL and an AUC(0-t) [1, 3] of 2080 ± 190 ng·h/mL. For the same molecule, the Tmax ([1]; single 1-h IV infusion 10 mg, n = 6, median (range)) was 1.12 h, the half-life [1, 4] was 3.22 ± 0.77 h and the AUC(0-inf) [1, 4] was 5940 ± 1180 ng·h/mL. The Cmax [1, 4] was 1500 ± 380 ng/mL, the AUC(0-t) [1, 4] was 4390 ± 1130 ng·h/mL and the Tmax ([1]; single 1-h IV infusion 25 mg, n = 5, median (range)) was 1.1 h. The half-life [1, 5] was 3.2 ± 0.43 h, the AUC(0-inf) [1, 5] was 12200 ± 1790 ng·h/mL and the Cmax [1, 5] was 3230 ± 460 ng/mL. It also gave an AUC(0-t) [1, 5] of 9160 ± 1170 ng·h/mL, a Tmax ([1]; single 1-h IV infusion 50 mg, n = 6, median (range)) of 1.07 h and a half-life [1, 6] of 4.07 ± 0.61 h. The AUC(0-inf) [1, 6] was 27300 ± 4580 ng·h/mL, the Cmax [1, 6] was 6710 ± 970 ng/mL and the AUC(0-t) [1, 6] was 19200 ± 2740 ng·h/mL. It also gave a Tmax ([1]; single 1-h IV infusion 100 mg, n = 6, median (range)) of 1.13 h, a half-life [1, 7] of 3.83 ± 1.23 h and an AUC(0-inf) [1, 7] of 51400 ± 13900 ng·h/mL. The Cmax [1, 7] was 13200 ± 2190 ng/mL, the AUC(0-t) [1, 7] was 36700 ± 6290 ng·h/mL and the Tmax ([1]; single 1-h IV infusion 200 mg, n = 6, median (range)) was 1.18 h. The half-life [1, 8] was 4.12 ± 0.23 h, the AUC(0-inf) [1, 8] was 69800 ± 7750 ng·h/mL and the Cmax [1, 8] was 17300 ± 3050 ng/mL. The AUC(0-t) [1, 8] was 48900 ± 6180 ng·h/mL, the Tmax ([1]; single 1-h IV infusion 300 mg, n = 6, median (range)) was 1.16 h and the half-life [1, 9] was 4.37 ± 0.51 h. The AUC(0-inf) [1, 9] was 103000 ± 11600 ng·h/mL, the Cmax [1, 9] was 24300 ± 4710 ng/mL and the AUC(0-t) [1, 9] was 71400 ± 7200 ng·h/mL. The Tmax ([1]; single 1-h IV infusion 400 mg, n = 6, median (range)) was 1.19 h, the Mean total clearance ([1]; single doses 10–400 mg, appeared dose independent) was “approximately 4 L/h” and the Tmax ([2]; First q6h dose (day 1), 14-day MAD 150 mg q6h × 14, Chinese, n = 10, median (range)) was 1.08 (1.02, 1.12) h. For the same molecule, the Tmax ([2]; First q6h dose (day 1), 14-day MAD 150 mg q6h × 14, non-Chinese, n = 10, median (range)) was 1.07 (1.03, 1.25) h, the Tmax ([2]; First q6h dose (day 3), 7-day MAD 100 mg q6h × 7, n = 6, median (range)) was 1.13 (1.08, 1.25) h and the t1/2 ([2]; First q6h dose (day 3), 7-day MAD 150 mg q6h × 7, n = 5, arithmetic mean ± SD) was 2.40 ± 0.21 h. The Tmax ([2]; First q6h dose (day 3), 7-day MAD 150 mg q6h × 7, n = 5, median (range)) was 1.07 (1.02, 1.15) h, the “ARAUC (accumulation ratio based on AUC)” value ([2]; Last q6h dose (day 9), 7-day MAD 100 mg q6h × 7, n = 6, arithmetic mean ± SD) was 1.59 ± 0.14 and the “ARAUC (accumulation ratio based on AUC)” value ([2]; Last q6h dose (day 9), 7-day MAD 150 mg q6h × 7, n = 5, arithmetic mean ± SD) was 1.48 ± 0.10. For the same molecule, the “ARAUC (accumulation ratio based on AUC)” value ([2]; Last q6h dose (day 9), 7-day MAD 200 mg q6h × 7, n = 5, arithmetic mean ± SD) was 1.69 ± 0.34 and the “ARAUC (accumulation ratio based on AUC)” value ([2]; Last q6h dose (day 14), 14-day MAD 150 mg q6h × 14, Chinese, n = 6, arithmetic mean ± SD) was 1.58 ± 0.19.
